In US5436246A, “Serotonin receptor agents” (priority 1993, dated 1995):
pIC50: −log10 of the molar value. Counter-ions that a name gives are not always drawn. Like-named read-outs stand apart in the source and are kept apart here.

How the values were obtained:
[1] = Eur. J. Pharmacol. 144, 223 (1987); 158, 53 (1988); cited from earlier work
[2] = Eur. J. Pharmacol. 180, 339 (1990); 182, 63 (1990); cited from earlier work
[3] = Eide, Neuropharm. 31, 541 (1992); cited from earlier work
[4] = Bielenberg et al., Stroke Supplement IV, 21 (1990); cited from earlier work
5HT1A receptor = target: T1, 5HT1A receptor (Rattus norvegicus, UniProt P19327); test: 5HT1A receptor binding affinity (procedure of Gozlan et al.)
T1 sequence (P19327 1-422): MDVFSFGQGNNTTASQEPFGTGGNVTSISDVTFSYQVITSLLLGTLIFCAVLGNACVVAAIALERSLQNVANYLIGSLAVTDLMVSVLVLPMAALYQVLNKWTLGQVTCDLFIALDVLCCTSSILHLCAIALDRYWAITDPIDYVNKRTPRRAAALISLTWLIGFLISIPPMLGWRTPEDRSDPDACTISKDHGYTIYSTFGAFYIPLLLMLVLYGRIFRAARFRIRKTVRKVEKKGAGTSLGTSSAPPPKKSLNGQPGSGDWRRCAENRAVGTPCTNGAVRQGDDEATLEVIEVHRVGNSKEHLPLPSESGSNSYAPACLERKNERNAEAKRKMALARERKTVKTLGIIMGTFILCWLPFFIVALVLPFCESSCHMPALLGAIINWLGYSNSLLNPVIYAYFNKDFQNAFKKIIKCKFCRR
Procedure: In the following examples, the compounds binding affinity for both the 5HT1A receptor and 5HT1D receptors is reported. The compounds affinity for the 5HT1D site was determined by the binding procedure of Peroutka et al as reported in European Journal of Pharmacology, Vol. 163 at pages 133-166 (1989). The compounds affinity for the 5HT1A receptor was determined by the procedure of Gozlan et al., as reported in Nature, Volume 305, at pages 140-142 (1983). Where multiple determinations of the binding affinity have been performed, the average is given followed by the number of determinations in parentheses. Also, the PA2 value for the saphenous vein preparation as described in this application is given, followed by the intrinsic (agonist) activity in parentheses, expressed as a percentage. [drawing 10] […]

5HT1D receptor = target: T2, 5HT1D receptor (Bos taurus, UniProt F1MGM3); test: 5HT1D receptor binding affinity (procedure of Peroutka et al.)
T2 construct: from tissue
Procedure: The compounds affinity for the 5HT1D site was determined by the binding procedure of Peroutka et al as reported in European Journal of Pharmacology, Vol. 163 at pages 133-166 (1989). […] Where multiple determinations of the binding affinity have been performed, the average is given followed by the number of determinations in parentheses.

5-HT1D receptors = 5-HT1D receptors (Canis lupus familiaris, UniProt P79250); parameters: species or system dog (canine)
Procedure: In the following examples, the compounds binding affinity for both the 5HT1A receptor and 5HT1D receptors is reported. The compounds affinity for the 5HT1D site was determined by the binding procedure of Peroutka et al as reported in European Journal of Pharmacology, Vol. 163 at pages 133-166 (1989). The compounds affinity for the 5HT1A receptor was determined by the procedure of Gozlan et al., as reported in Nature, Volume 305, at pages 140-142 (1983). Where multiple determinations of the binding affinity have been performed, the average is given followed by the number of determinations in parentheses. Also, the PA2 value for the saphenous vein preparation as described in this application is given, followed by the intrinsic (agonist) activity in parentheses, expressed as a percentage. [drawing 10]
We have used canine saphenous vein for studying 5-HT1D receptors which is similar, although not totally identical, to human coronary 5-HT1D receptors (see Humphrey, P. P. A., Feniuk, W., Perren, M. J., Connor, H. E., Oxford, A. W., Coates, I. H. and Butina, D.: GR43175, a selective agonist for the 5-HT1 -like receptor in dog isolated saphenous vein, Br. J. Pharmacol. 94:1123-1132, 1988; Kaumann, A. J.: Human heart 5-HT receptors, Second international symposium on serotonin, from cell biology to pharmacology and therapeutics, Houston, Sep. 15-18, 1992).
Mongrel dogs weighing 12-18 kg were killed by an intravenous injection of an overdose of sodium pentobarbitol. Saphenous veins were isolated, removed, cleaned of surrounding connective tissue, and cut into helical strips in a dish containing Krebs-Henseleit solution with the following composition in mM: NaCl, 110.0; KCl, 4.8; CaCl2, 2.5; KH2 PO4, 1.2; EDTA(NaEDTA), 0.027; and was constantly bubbled with 95% O2 -5% CO2. Unless otherwise specified, the endothelium of the […] was removed by rubbing with a metal rod. The intactness or absence of functional endothelium was checked by the presence or absence of a relaxant effect of acetycholine (10^-5 M) in phenylephrine-contracted tissues (see Furchgott, R. F. and Zawadzki, J. V.: The obligatory role of endothelial cells in the relaxtion of arterial smooth muscle by acetycholine, Nature 288:373-376, 1980). Each muscle strip (3×30 mm) was set up in a tissue bath at 37° C. and loaded with 2 gram tension. Contractility of the tissues was measured isometrically with a Grass FT03 force-displacement transducer and recorded on a Strip chart recorder. The tissues were allowed to stabilize for 2 hours before the experiment was started, during which time they were washed repeatedly. Tissues were contracted with 3.162×10^-6 M phenylephrine and 40 mM KCl, which produced 60-70% of their maximum contractile responses, to condition the tissue. 5-HT dose response experiment was conducted. Test compounds were then incubated with the tissue before a second 5-HT dose response experiment was performed. Data are expressed as the pA2 value, the negative logarithm of the molar concentration of antagonist which produced a 2 fold shift in ED50 values of 5-HT dose response curves (see Van Rossum, J. M.: Cumulative dose-response curve: Technique for the making of dose-response curves in isolated organs and the evaluation of drug parameters, Arch. Int. Pharmacodyn. Ther. 143:299-330, 1963).

[5] = acetic acid writhing test (analgesic effect); format: in vivo; conditions: Mus musculus, sc, 0.5 h; mice, subcutaneous, 30 minutes before acetic acid i.p. (0.25% v/v, 0.4 ml)
Procedure: Eide, Neuropharm. 31, 541 (1992). […] One such model is the acetic acid writhing test. In this test, a group containing from 5-10 mice are administered the test compound subcutaneously. Thirty minutes after administration of the test compound, the mice are administered acetic acid intraperitoneally (0.25 % v/v, 0.4 ml). The mice are then observed for squirming and writhing. Analgesics block this squirming and writhing.

[6] = fear-potentiated startle test (anxiolytic activity); format: in vivo; conditions: rats
From the text: Animals were trained and tested for tear-potentiated startle in a modification of the methods reported in Hitchcock and Davis (1991). Briefly, rats first were given a matching session consisting of 30 startle stimuli. […] A training session took place one to two days later in which the rats were given 10 paired trials consisting of a visual conditioned stimulus (a light) immediately followed by an unconditioned stimulus (footshock). The test session took place two days later. The product of Example No. 15 was administered s.c. in the flank and fifteen minutes later, the rats were given startle stimuli in the absence of the conditioned stimulus (baseline startle measurement; Noise-Alone trials) or in the presence of the conditioned stimulus (fear-potentiated startle measurement; Light-Noise trials). Fear-potentiated startle was defined as higher startle in the presence of the conditioned fear stimulus than in its absence.
Statistical analysis was done on the mean startle amplitudes on the Noise-Alone and Light-Noise trials, and the mean Difference scores (Light-Noise minus Noise-Alone means). One-way analysis of variance was run on the Difference scores and on the Noise-Alone scores. Multiple comparison test (Fisher PLSD) were used to compare each dose group to the vehicle control group.

[7] = system: dorsal raphe nucleus neurons; conditions: Vandermaelen et al.; cited from earlier work
[8] = Peroutka et al.; Saxena et al.; Hamel et al.; cited from earlier work
[9] = early clinical trials; cited from earlier work

T2 sequence (F1MGM3 1-403): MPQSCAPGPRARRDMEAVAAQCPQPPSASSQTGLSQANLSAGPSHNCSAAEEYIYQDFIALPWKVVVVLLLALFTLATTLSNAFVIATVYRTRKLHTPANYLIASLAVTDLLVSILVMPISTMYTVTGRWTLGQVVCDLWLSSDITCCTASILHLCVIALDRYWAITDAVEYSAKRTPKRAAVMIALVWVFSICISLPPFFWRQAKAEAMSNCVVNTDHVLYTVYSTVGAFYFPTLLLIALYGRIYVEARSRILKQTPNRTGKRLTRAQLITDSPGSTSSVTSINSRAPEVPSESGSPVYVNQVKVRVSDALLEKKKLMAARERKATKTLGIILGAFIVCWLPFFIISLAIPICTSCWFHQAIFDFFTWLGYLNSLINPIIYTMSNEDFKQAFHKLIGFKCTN
Sequence of 5-HT1D receptors (P79250 whole entry): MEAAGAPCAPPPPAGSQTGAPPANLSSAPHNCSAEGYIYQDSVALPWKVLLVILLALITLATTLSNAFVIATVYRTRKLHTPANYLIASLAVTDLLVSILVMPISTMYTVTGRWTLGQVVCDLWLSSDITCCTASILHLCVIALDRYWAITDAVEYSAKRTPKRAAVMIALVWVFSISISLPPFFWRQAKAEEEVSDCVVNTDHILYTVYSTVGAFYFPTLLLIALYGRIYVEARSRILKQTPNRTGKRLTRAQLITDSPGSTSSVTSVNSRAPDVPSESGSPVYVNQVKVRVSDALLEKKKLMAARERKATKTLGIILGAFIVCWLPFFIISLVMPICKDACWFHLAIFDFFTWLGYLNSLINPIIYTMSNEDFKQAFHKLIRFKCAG

## CCCN(CCC)C1CCc2cccc(O)c2C1 (stereo not drawn) [8-OH DPAT, 8-hydroxy-2-(di-N-propylamino) tetralin]
[1]
  effect in rodent models for depression: effective in rodent models for depression
[2]
  antihypertensive effect in rodent models: effective for the treatment of hypertension in rodent models
[3]
  analgesic effect: effective as analgesics
[4]
  neuronal destruction in rodent models of stroke: inhibited or decreased neuronal destruction

## CCCN(CCC)C1Cc2c[nH]c3ccc(OC)c(c23)C1.Cl (stereo not drawn) [Bay R 1531]
[4]
  neuronal destruction in rodent models of stroke: inhibited or decreased neuronal destruction

## Cl.NC(=O)c1cc2c(N3CCN(CCc4ccccc4)CC3)cccc2s1 [Example 9, 4-[4-(2-phenylethyl)-1-piperazinyl]-benzo[b]thiophene-2-carboxamide monohydrochloride]
5HT1A receptor
  pIC50: 9.30
5HT1D receptor
  pIC50: 8.80
5-HT1D receptors
  Kb: 10.2 nM
[5]
  ED50: 0.12 mg/kg

## OCc1cc2c(N3CCN(CCCc4ccccc4)CC3)cccc2s1 [Example 15, 4-[4-(3,phenylpropyl)-1-piperazinyl]-benzo[b]thiophene-2-methanol monohydrochloride]
5HT1A receptor; average of multiple determinations where number in parentheses is given, read-out: IC50 (5HT1A Binding Affinity)
  pIC50: 8.74
5HT1D receptor; average of multiple determinations where number in parentheses is given, read-out: IC50 (5HT1D Binding Affinity)
  pIC50: 7.64
[5]
  ED50: 1.74 mg/kg
[6]; doses of 2.5, 20.0, and 40.0 mg/kg s.c., p<.05 vs vehicle, Fisher PLSD
  decrease of fear-potentiated startle: decreased fear-potentiated startle with statistically significant effects
[6]; s.c., 15 minutes before test
  anxiolytic activity in the fear-potentiated startle test: significant anxiolytic activity
[6]; s.c., Noise-Alone trials
  baseline startle reflex (muscle relaxant activity): did not decrease the baseline startle reflex

## Cl.NC(=O)c1cc2c(N3CCN(CCc4ccc(Cl)cc4)CC3)cccc2s1 [Example 21, 4-[4-[2-(4-chlorophenyl)ethyl]-1-piperazinyl]-benzo[b]thiophene-2-carboxamide monohydrochloride]
5HT1A receptor
  pIC50: 8.70
5HT1D receptor
  pIC50: 7.85
[5]
  ED50: 0.05 mg/kg

## Cc1ccc(CCN2CCN(c3cccc4sc(C(N)=O)cc34)CC2)cc1 [Example 29, 4-[4-[2-(4-methylphenyl)ethyl]-1-perazinyl]-benzo[b]thiophene-2-carboxamide monohydrochloride]
5HT1A receptor
  pIC50: 9.00
5HT1D receptor
  pIC50: 8.52
[5]
  ED50: 0.03 mg/kg

## O=C1CC2(CCCC2)CC(=O)N1CCCCN1CCN(c2ncccn2)CC1 [buspirone]
[7]
  raphe cell firing: inhibit raphe cell firing

## O=C(NCCN1CCN(c2cccc3c2OC[C@H](CO)O3)CC1)c1ccc(F)cc1 [flesinoxan]
[2]
  antihypertensive effect in rodent models: effective for the treatment of hypertension in rodent models

## CC1(C)CC(=O)N(CCCCN2CCN(c3ncccn3)CC2)C(=O)C1 [gepirone]
[4]
  neuronal destruction in rodent models of stroke: inhibited or decreased neuronal destruction

## O=C1c2ccccc2S(=O)(=O)N1CCCCN1CCN(c2ncccn2)CC1 [ipsapirone]
[4]
  neuronal destruction in rodent models of stroke: inhibited or decreased neuronal destruction

## CNS(=O)(=O)Cc1ccc2[nH]cc(CCN(C)C)c2c1 [sumatriptan]
[8]
  antimigraine-like effects in animal models: produce antimigraine-like effects in animal models
[9]
  termination of acute migraine attacks: terminate acute migraine attacks in early clinical trials
